According to publication PMC8508980, “Design, Synthesis and Anticancer Profile of New 4-(1H-benzo[d]imidazol-1-yl)pyrimidin-2-amine-Linked Sulfonamide Derivatives with V600EBRAF Inhibitory Effect” (International Journal of Molecular Sciences, 2021):

Key:
[1] = system: A375 cells; assay: Antiproliferative MTT assay; format: cell-based; conditions: Homo sapiens, A-375, 48 h, mean ± S.D. of two experiments
Experimental: (§1) The effect of final target compounds over A375 and SK-MEL-5 was performed using reported procedures (detailed procedure is located in the Supplementary Information page 51s). […]
(§2) Evaluation of the Antiproliferative Activity Against A375 and SK-MEL-5
(§3) A375 and SK-MEL-5 cells were purchased from American Type Culture Collection (ATCC, Ro ckv ille, MD, USA) and maintained in Dulbecco’s modified eagle medium (DMEM, Welgene, Daegu, Republic of Korea) supplemented with 10% fetal bovine serum (FBS, Welgene, Daegu, Republic of Korea) and 1% penicillin/streptomycin (Welgene, Daegu, Republic of Korea) in a hu midified atmo sphere with 5% CO2 at 37 °C. Both cells were taken from culture substrate with 0.05% trypsin-0.02% EDTA and plated at a density of 5 × 10^3 cells/well in 96 well plates and then incubated at 37 °C fo r 24 h in a hu midified atmo sphere with 5% CO2 prior to treatment with various concentrations (3-fold serial dilution, 12 points) of the tested compounds. The cells were incubated for 48 h after treatment with the test compounds. The cell viability was assessed by the conventional 3-(4,5-dimethylthiazol-2-yl)-2,5-diphenyltetrazolium bromide (MTT) reduction assay. MTT assays were carried out with CellTiter 96® (Promega) according to the manufacturer’s instructions. The absorbance at 590 nm was recorded using EnVision 2103 (Perkin Elmer; Bo ston , MA, USA). The IC50 values were calculated using GraphPad Prism 4.0

[2] = system: SK-MEL-5 cells; assay: Antiproliferative MTT assay; format: cell-based; conditions: Homo sapiens, 48 h, mean ± S.D. of two experiments
Experimental: as §1, §2, §3

CNC(=O)c1cc(Oc2ccc(NC(=O)Nc3ccc(Cl)c(C(F)(F)F)c3)cc2)ccn1 [Sorafenib, reference compound]
IC50 [1]: 5.25 ± 0.74 µM
IC50 [2]: 9.22 ± 0.81 µM
